# From US20230190873A1, “METHODS AND COMPOSITIONS RELATED TO THE TREATMENT OF NURR1- AND PPARy-MEDIATED CONDITIONS” (The McLean Hospital Corporation, priority 2017, published 2023)
# Several values for one entry are separate records, joined by “and”; a condition that tells them apart may be missing. Equal entries are not always repeated. Entries after “also recorded” stand apart in the source; their conditions may differ.
# Columns and labels:
# [1] = molecular target: T1, PPARa-LBD (Homo sapiens, UniProt Q07869); assay: PPARa-LBD reporter construct transcriptional activation; assay type: cell-based
# T1 construct: fold induction of reporter constructs of Nurr1-LBD, PPARa-LBD, and PPARγ-LBD; expressed in transfected cells
# T1 sequence (Q07869 239-466 limits assumed): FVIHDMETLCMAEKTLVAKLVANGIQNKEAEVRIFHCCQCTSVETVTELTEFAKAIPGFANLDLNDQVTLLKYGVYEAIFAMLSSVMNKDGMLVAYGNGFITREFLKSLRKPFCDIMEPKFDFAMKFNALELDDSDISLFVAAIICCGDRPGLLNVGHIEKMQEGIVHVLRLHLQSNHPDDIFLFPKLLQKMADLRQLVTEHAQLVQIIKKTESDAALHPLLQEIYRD
# Source text: FIG. 13 depicts the fold induction of reporter constructs of Nurr1-LBD, PPARa-LBD, and PPARγ-LBD by different concentrations of PGH1, PGH2, PGJ2, and 15-d-PGJ2.
# [2] = system: Nurr1-LBD; assay: Nurr1 LBD-dependent luciferase reporter assay in SK-N-BE(2)C cells; assay type: cell-based; conditions: GAL4(DBD)-Nurr1(LBD) luciferase reporter
# Experimental: The graph depicts Nurr1-inducing activities by tissue extracts from brain, lung, heart, and kidney. […] The effector plasmid pSVGAL4(DBD)Nurr1(LBD) and the reporter gene for p8XUASL-Luc, together with b-galactosidase expression vector, were transiently transfected into neuroblastoma SK-N-BE(2)C cells. 6 h after transfection, cells were treated with the various tissue extracts for 20 h and the reporter activities were determined by luciferase assay and normalized to the b-galactosidase activity. The basal level of transcriptional activity was normalized to 1. The bars represent means +S.E.M. from three independent experiments.
# Graph depicts effects of single or combination treatment with AQ/CQ and prostaglandin (PGE) on Nurr1 activity. As a negative control, human neuroblastoma SK-N-BE(2)C cells transfected with p8XUAS-Luc and pGAL(DBD)Nurr1(LBD) constructs were treated with DMSO alone. As a positive control, cells were treated as described above and harvested 24 h after treatment. An expression vector encoding RSV b-gal was co-transfected to allow normalization for transfection efficiency. Luciferase activity is represented as fold induction after normalization to β-galactosidase compared to cells treated with DMSO alone. Data represent the means ±SEMs of triplicate samples.
# [3] = molecular target: T2, PPARγ-LBD (Homo sapiens, UniProt P37231); assay: PPARγ-LBD reporter construct transcriptional activation; assay type: cell-based
# T2 construct: fold induction of reporter constructs of Nurr1-LBD, PPARa-LBD, and PPARγ-LBD; expressed in transfected cells
# T2 sequence (P37231 238-503 limits assumed): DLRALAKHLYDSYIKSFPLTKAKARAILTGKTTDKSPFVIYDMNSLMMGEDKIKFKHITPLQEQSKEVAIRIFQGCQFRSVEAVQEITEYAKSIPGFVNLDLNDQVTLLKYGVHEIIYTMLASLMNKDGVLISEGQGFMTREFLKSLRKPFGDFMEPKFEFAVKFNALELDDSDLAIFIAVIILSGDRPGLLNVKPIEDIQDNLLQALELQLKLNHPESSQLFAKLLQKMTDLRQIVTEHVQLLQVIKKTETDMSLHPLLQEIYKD
# Source text: FIG. 13 depicts the fold induction of reporter constructs of Nurr1-LBD, PPARa-LBD, and PPARγ-LBD by different concentrations of PGH1, PGH2, PGJ2, and 15-d-PGJ2. […]
# [4] = system: primary cultured mDA neurons; assay: MPP+ toxicity in primary cultured mDA neurons; assay type: cell-based; conditions: MPP+ exposure
# Source text: MPP+exposure to mDA neurons decreases the number of TH positive dopaminergic neurons.
# [5] = system: MPTP-induced animal model of PD; assay: MPTP-induced animal model of PD; assay type: in vivo, mice; conditions: for TH density in the striatum / number of TH+ neurons in the SN: MPTP-treated mice, compared to saline-treated control mice; for latency to fall on a rotating rod (rotarod) / time to descent on the pole (pole test): day 6 following MPTP, compared to saline-treated mice
# Source text: FIG. 22A depicts a schematic representation of the administration of PGE1 or PGA1 to MPTP-induced animal model of PD. MPTP-treated mice were pre-administrated with PGE1, PGA1 or saline for 3 days before MPTP injection and post-treated for 5 days after MPTP injection.
# [6] = system: H9, human embryonic stem cell (hESC); assay: Dopaminergic differentiation of H9 hESC (real time PCR); assay type: cell-based; conditions: for expression level of Lmx1A / expression level of TH: 15 days of differentiation, compared to vehicle group
# Experimental: After 15 days of differentiation procedure including floor plate induction (day1˜day6), neural precursor induction (day 6˜day 12), and dopaminergic precursor induction (day 12˜day 15), cells were harvested for RNA extraction and cDNA preparation. The real time PCR was performed using cDNA and the matching primers for FoxA2, Lmx1A, and TH to determine the level of dopaminergic differentiation.
# [7] = system: LPS-induced immunoactivated mouse bone marrow-derived macrophages; assay: Pro-inflammatory gene expression in immune-activated mBMMs; assay type: cell-based; conditions: LPS- or poly(I:C)-induced immune-activated mBMMs, 18 hrs
# Experimental: FIG. 25 show titrations of prostaglandin A1 (PGA1), A2 (PGA2), E1 (PGE1), E2 (PGE2) in LPS-induced immunoactivated mouse bone marrow-derived macrophages. […] The maximal effective concentration was 20 μM or 10 μg/ml.
structure (smiles),measurement,setting,value
CCCCC/C=C/C=C1/C(=O)C=C[C@@H]1C/C=C\CCCC(=O)O [15-d-PGJ2],transcriptional activity of PPARalpha LBD,[1],robustly activated PPARs
same,transcriptional activity of Nurr1-LBD,[2],not Nurr1 LBD
same,transcriptional activity of PPARγ-LBD,[3],robustly activated PPARs; also recorded: increases transcriptional activity of PPARγ-LBD
"CCCCC[C@H](O)/C=C/[C@H]1C=CC(=O)[C@@H]1CCCCCCC(=O)O [PGA1, prostaglandin A1]",MPP+-induced loss of TH-positive mDA neurons,[4],significantly rescued the MPP+-induced loss of TH-positive mDA neurons
same,TH density in the striatum,[5],retain
same,number of TH+ neurons in the SN,[5],retain a significant number
same,latency to fall on a rotating rod (rotarod),[5],rescues impaired motor behaviors
same,time to descent on the pole (pole test),[5],rescues impaired motor behaviors
same,expression level of Lmx1A,[6],significantly higher expression level of Lmx1A and TH
same,expression level of TH,[6],significantly higher expression level of Lmx1A and TH
same,transcriptional activity of Nurr1-LBD,[2],increases transcriptional activity of Nurr1-LBD in a dose dependent manner
same,maximal effective concentration,[7],20 μM and 10 μg/ml
same,"suppression of pro-inflammatory genes TNFα, IL-1β, iNOS and IL-6",[7],"induced suppression of pro-inflammatory genes including TNFα, IL-1β, iNOS and IL-6 in a dose-dependent manner"
CCCCC[C@H](O)/C=C/[C@H]1C=CC(=O)[C@@H]1C/C=C\CCCC(=O)O [PGA2],transcriptional activity of Nurr1-LBD,[2],increases transcriptional activity of Nurr1-LBD in a dose dependent manner
same,maximal effective concentration,[7],20 μM and 10 μg/ml
same,"suppression of pro-inflammatory genes TNFα, IL-1β, iNOS and IL-6",[7],"induced suppression of pro-inflammatory genes including TNFα, IL-1β, iNOS and IL-6 in a dose-dependent manner"
CC/C=C\C[C@H](O)/C=C/[C@H]1C=CC(=O)[C@@H]1C/C=C\CCCC(=O)O [PGA3],transcriptional activity of Nurr1-LBD,[2],increases transcriptional activity of Nurr1-LBD in a dose dependent manner
CCCCC[C@H](O)/C=C/C1=C(CCCCCCC(=O)O)C(=O)CC1 [PGB1],expression level of Lmx1A,[6],significantly higher expression level of Lmx1A and TH
same,expression level of TH,[6],significantly higher expression level of Lmx1A and TH
same,transcriptional activity of Nurr1-LBD,[2],increases transcriptional activity of Nurr1-LBD in a dose dependent manner
same,transcriptional activity of PPARγ-LBD,[3],activate transcriptional function of PPARγ in a dose-dependent manner
CCCCC[C@H](O)/C=C/C1=C(C/C=C\CCCC(=O)O)C(=O)CC1 [PGB2],transcriptional activity of Nurr1-LBD,[2],increases transcriptional activity of Nurr1-LBD in a dose dependent manner
same,transcriptional activity of PPARγ-LBD,[3],activate transcriptional function of PPARγ in a dose-dependent manner
CC/C=C\CC(O)/C=C/C1=C(C/C=C\CCCC(=O)O)C(=O)CC1 (centres unmarked) [PGB3],transcriptional activity of Nurr1-LBD,[2],increases transcriptional activity of Nurr1-LBD in a dose dependent manner
CCCCC[C@H](O)/C=C/[C@H]1[C@H](O)CC(=O)[C@@H]1CCCCCCC(=O)O [PGE1],MPP+-induced loss of TH-positive mDA neurons,[4],significantly rescued the MPP+-induced loss of TH-positive mDA neurons
same,TH density in the striatum,[5],retain
same,number of TH+ neurons in the SN,[5],retain a significant number
same,latency to fall on a rotating rod (rotarod),[5],rescues impaired motor behaviors
same,time to descent on the pole (pole test),[5],rescues impaired motor behaviors
same,TH expression compared with cAMP,[6]; 0.01 mM concentration,"dramatic increase of TH expression in 0.01 mM concentration, which was even stronger than cAMP"
same,expression level of Lmx1A,[6],significantly higher expression level of Lmx1A and TH
same,expression level of TH,[6],significantly higher expression level of Lmx1A and TH
same,transcriptional activity of Nurr1-LBD,[2],specifically and prominently activate the transcription function of Nurr1; also recorded: endogenous activators/agonists of Nurr1 function; also recorded: activate the transcriptional activity of Nurr1 in a dose-dependent manner; also recorded: increase transcriptional activity of Nurr1-LBD in a dose dependent manner
same,maximal effective concentration,[7],20 μM and 10 μg/ml
same,"suppression of pro-inflammatory genes TNFα, IL-1β, iNOS and IL-6",[7],"induced suppression of pro-inflammatory genes including TNFα, IL-1β, iNOS and IL-6 in a dose-dependent manner"
same,transcriptional activity of PPARγ-LBD,[3],failed to induce transcriptional activity of PPARγ-LBD
CCCCC[C@H](O)/C=C/[C@H]1[C@H](O)CC(=O)[C@@H]1C/C=C\CCCC(=O)O [PGE2],transcriptional activity of Nurr1-LBD,[2],specifically and prominently activate the transcription function of Nurr1; also recorded: endogenous activators/agonists of Nurr1 function; also recorded: activate the transcriptional activity of Nurr1 in a dose-dependent manner; also recorded: increase transcriptional activity of Nurr1-LBD in a dose dependent manner
same,maximal effective concentration,[7],20 μM and 10 μg/ml
same,"suppression of pro-inflammatory genes TNFα, IL-1β, iNOS and IL-6",[7],"induced suppression of pro-inflammatory genes including TNFα, IL-1β, iNOS and IL-6 in a dose-dependent manner"
same,transcriptional activity of PPARγ-LBD,[3],failed to induce transcriptional activity of PPARγ-LBD
CC/C=C\C[C@H](O)/C=C/[C@H]1[C@H](O)CC(=O)[C@@H]1C/C=C\CCCC(=O)O [PGE3],transcriptional activity of Nurr1-LBD,[2],specifically and prominently activate the transcription function of Nurr1; also recorded: endogenous activators/agonists of Nurr1 function
CCCCC[C@H](O)/C=C/[C@@H]1[C@@H](CCCCCCC(=O)O)[C@@H](O)C[C@H]1O [PGF2a],transcriptional activity of Nurr1-LBD,[2],activates transcriptional function of Nurr1; also recorded: increases transcriptional activity of Nurr1-LBD in a dose dependent manner
same,transcriptional activity of PPARγ-LBD,[3],failed to induce transcriptional activity of PPARγ-LBD
CCCCC[C@H](O)/C=C/C1C2CC(OO2)C1C/C=C\CCCC(=O)O (some centres unmarked) [PGH2],transcriptional activity of Nurr1-LBD,[2],robustly activate the transcriptional activities of Nurr1 LBD; also recorded: increase transcriptional activity of Nurr1-LBD in a dose dependent manner
same,transcriptional activity of PPARγ-LBD,[3],failed to induce transcriptional activity of PPARγ-LBD
CCCCC[C@H](O)/C=C/[C@H]1C(=O)C=C[C@@H]1C/C=C\CCCC(=O)O [PGJ2],transcriptional activity of PPARalpha LBD,[1],robustly activated PPARs
same,transcriptional activity of Nurr1-LBD,[2],not Nurr1 LBD
same,transcriptional activity of PPARγ-LBD,[3],robustly activated PPARs
"CCCCC[C@H](O)/C=C/[C@H]1OC(O)C[C@H](O)[C@@H]1C/C=C\CCCC(=O)O (some centres unmarked) [TxB2, reference compound]",transcriptional activity of Nurr1-LBD,[2],does not activate transcriptional function of Nurr1 and PPARγ; also recorded: failed to induce transcriptional activity of Nurr1-LBD
same,transcriptional activity of PPARγ-LBD,[3],does not activate transcriptional function of Nurr1 and PPARγ; also recorded: failed to induce transcriptional activity of PPARγ-LBD
